Columns and labels:
[1] = target: T1, HIV Reverse Transcriptase (Human immunodeficiency virus type 1 group M subtype B, UniProt P04585); assay: in vitro inhibition of HIV reverse transcriptase in presence and absence of ATP or other nucleoside phosphates (kit TRK 1022); type: biochemical
T1 construct: purchased Amersham Life Sciences TRK 1022
Method: The assay was run using kit TRK 1022™ (Amersham Life Sciences) according to the manufacturer's instructions with slight modifications. Test compounds were diluted in steps of ¼ in 100% DMSO and subsequently diluted 1/50 in Medium A (RPMI 1640+10% fetal calf serum, […] gentamycin).
In each experiment three conditions were tested: wells filled with 25 μl of the above compound solutions, wells filled with 25 μl 2% DMSO in Medium A (RO) and wells filled with 100 μl Stopsolution and 25 μl DMSO in Medium A (RI). To each well was added 25.5 μl master mix (5 μl primer/template beads, 10 μl assay buffer, 0.5 μl tracer (50 μM [3H]-dTTP), 5 μl HIV RT enzyme solution (15 mU/μl), 5 μl Medium A). The plates were sealed, and incubated during 4 hours at 37° C. Subsequently, 100 μl stop solution was added to each well (except RI). The radioactivity was counted in a TopCount™.
For testing compound inhibition in the presence of ATP the same protocol as above was used but the Medium A in the master mix was replaced with Medium A containing 320 mM ATP.
The procedures of example 1 were repeated but ATP was changed by a number of other nucleoside phosphates. The following table lists the tested nucleoside phosphates and the IC50 values in μM of compound 1 obtained in the presence of the concerned nucleoside phosphate.

[2] = system: wild-type HIV-1 (LAI strain); assay: anti-viral cellular assay, HIV-infected MT4 cells, MTT readout, wild-type virus; type: cell-based; details: Human immunodeficiency virus 1, 120 h, five days
Method: The test compounds are examined for anti-viral activity in a cellular assay performed according to the following procedure.
(§1) HIV- or mock-infected MT4 cells were incubated for five days in the presence of various concentrations of the test compound. At the end of the incubation period, the replicating virus in the control cultures had killed all HIV-infected cells in the absence of any inhibitor. Cell viability was determined by measuring the concentration of MTT, a yellow, water soluble tetrazolium dye that is converted to a purple, water insoluble formazan in the mitochondria of living cells only. Upon solubilization of the resulting formazan crystals with isopropanol, the absorbance of the solution was monitored at 540 nm. The values correlate directly to the number of living cells remaining in the culture at the completion of the five day incubation. The inhibitory activity of the compound was monitored on the virus-infected cells and was expressed as EC50 and EC90. These values represent the amount of the compound required to protect 50% and 90%, respectively, of the cells from the cytopathogenic effect of the virus. […] Wherever results are reported as e.g. pEC50 or pCC50 values, the result is expressed as the negative logarithm of the result expressed as EC50 or CC50 respectively.

[3] = system: site-directed mutant of wild-type HIV-1 (HXB2) that contains the K103N and Y181C mutation; assay: anti-viral cellular assay, MT4 cells, MTT readout, NNRTI-resistant mutant virus; type: cell-based; details: Human immunodeficiency virus 1, HXB2, MT4
Method: as §1, with “virus. The toxicity of the compound was measured on the mock-infected cells and was expressed as CC50, which represents the concentration of compound required to inhibit the growth of the cells by 50%.” for “virus.”, “respectively. […]” for “respectively.”

HIV RT = HIV RT (Human immunodeficiency virus type 1 group M subtype B, UniProt P04585); assay: enzyme kinetics studies (1/v versus 1/[dTTP]); type: biochemical; details: 40-3 μM dTTP, 2-0 μM compound, poly(rA)oligo(dT); lines cross at Y-axis intercept
Method: The enzyme kinetics studies were carried out using a protocol involving a 4×5 matrix of varying substrate and inhibitor concentrations over ranges of 40-3 μM of dTTP and 2-0 μM of compound 1.
The reaction mixtures (50 μl) further contained 50 mM Tris.HCl (pH 7.8), 5 mM dithiothreitol, […], 500 μM EDTA, 150 mM KCl, 5 mM MgCl2, 0.15 mM of the template/primer poly(rA)oligo(dT) and 0.06% Triton X-100.
The reaction mixtures were incubated at 37° C. for 15 min, at which time 100 μl of calf thymus DNA (150 pg/ml), 2 ml of Na4P2O7 (0.1 M in 1 M HCl), and 2 ml of trichloroacetic acid (10% v/v) were added. The solutions were kept on ice for 30 min, after which the acid-insoluble material was washed and analyzed for radioactivity. When the reciprocal of the reaction velocity (1/v) is plotted against the reciprocal of the substrate concentration (1/[dTTP]) in the presence of different concentrations of compound 1, the graph (See FIG. 1) is obtained.

Cn1c2ccccc2c2c1cc(C#N)c(=O)n2-c1ccc([N+](=O)[O-])cc1 [Compound 1]
IC50 ([1]; in the absence of ATP): 300 nM
IC50 ([1]; in the presence of ADP): 23 nM
IC50 ([1]; in the presence of AMP): 17.8 nM
IC50 ([1]; in the presence of ATP (Medium A in master mix containing 320 mM ATP)): 16 nM
IC50 ([1]; in the presence of ATPbgNH): 24.5 nM
IC50 ([1]; in the presence of ATPgS): 12.4 nM
IC50 ([1]; in the presence of CTP): 114 nM
IC50 ([1]; in the presence of GTP): 70.4 nM
IC50 ([1]; in the presence of PPi): 199 nM
IC50 ([1]; in the presence of UTP): 51.9 nM
EC50 [2]: 45 nM
EC50 [3]: 98 nM
mode of HIV RT inhibition (HIV RT): competitive mode of HIV RT inhibition

— US20080138812A1, “Screening Method For Competitive Hiv Rt Inhibitors” (priority 2005, published 2008)
